These results are taken from patent US20230114241A1, “METHODS OF TREATING EPILEPSY USING THE SAME” (Trevena, Inc., priority 2019, published 2023).

The target of experiment [1] is T1, human sphingosine-1-phosphate receptor 1 (S1P1) (Homo sapiens, UniProt P21453). Description: Inhibition of cAMP production (HTRF cAMP HiRange), S1P1 CHO-K1 cells. The class given is cell-based. As to conditions: for Emax: CHO-K1, efficacy normalized to maximum efficacy of fingolimod, read-out: hS1P1 CAMP SPAN; for EC50: read-out: hS1P1 CAMP pEC50 (converted). The essentials: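 CHO-K1 cells co-expressing human S1P1 (C-terminal ProLink tag) and EA-β-arrestin2, plated overnight; after 30 min compound incubation at 37 °C, intracellular cAMP measured by HTRF TR-FRET following 1 h at room temperature. Values normalized to fingolimod.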
Target sequence in this assay (P21453 whole entry): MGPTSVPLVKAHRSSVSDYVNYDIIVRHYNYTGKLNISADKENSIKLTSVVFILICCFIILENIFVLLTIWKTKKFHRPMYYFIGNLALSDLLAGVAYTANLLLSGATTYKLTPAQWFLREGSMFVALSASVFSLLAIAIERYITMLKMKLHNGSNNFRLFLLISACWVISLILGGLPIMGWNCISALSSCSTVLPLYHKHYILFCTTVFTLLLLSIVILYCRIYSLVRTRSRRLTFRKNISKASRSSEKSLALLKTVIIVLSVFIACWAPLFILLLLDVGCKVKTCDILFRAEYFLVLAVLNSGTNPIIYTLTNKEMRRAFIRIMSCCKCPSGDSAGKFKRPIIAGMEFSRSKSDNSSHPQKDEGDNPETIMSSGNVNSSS

In experiment [2] the target is T1, human sphingosine-1-phosphate receptor 1 (S1P1). Kind of experiment: β-Arrestin2 recruitment assay (PathHunter), S1P1 CHO-K1 cells. The class given is cell-based. The settings on record: for Emax: efficacy normalized to maximum efficacy of fingolimod, read-out: hS1P1 B-arrestin2 SPAN; for EC50: β-arrestin2 recruitment, read-out: hS1P1 B-arrestin2 pEC50 (converted). The essentials: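 CHO-K1 cells co-expressing EA-β-arrestin2 and ProLink-tagged human S1P1 plated overnight, then stimulated 60 min at 37 °C. Enzyme-fragment complementation (β-galactosidase) detected after 1 h at room temperature by luminescence; values normalized to fingolimod.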
Target sequence in this assay (P21453 whole entry): as above
Target sequence in this assay (P32121 whole entry partner): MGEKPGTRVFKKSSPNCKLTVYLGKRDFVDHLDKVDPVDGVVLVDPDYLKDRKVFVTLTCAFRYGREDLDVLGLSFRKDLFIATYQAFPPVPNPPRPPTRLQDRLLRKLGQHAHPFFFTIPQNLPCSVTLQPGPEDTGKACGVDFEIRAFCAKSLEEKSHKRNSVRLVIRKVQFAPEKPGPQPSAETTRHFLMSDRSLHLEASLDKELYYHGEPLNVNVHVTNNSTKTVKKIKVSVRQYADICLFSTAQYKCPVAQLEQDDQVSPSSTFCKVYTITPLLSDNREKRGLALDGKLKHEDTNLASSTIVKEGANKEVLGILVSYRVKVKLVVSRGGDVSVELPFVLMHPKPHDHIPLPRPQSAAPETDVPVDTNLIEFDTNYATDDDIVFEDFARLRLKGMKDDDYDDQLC
(Arrestin recruitment assays detect the binding of arrestin to an activated receptor.)

The mark [3] stands for this setting: inhibition of cAMP production, S1P1.
The mark [4] stands for this setting: inhibition of cAMP production, potency.
The mark [5] stands for this setting: CHO-K1, β-arrestin2 recruitment.

Molecules are shown by their SMILES. A value given as a limit tells only on which side of the number the result lay.

On to `CCC1(CC)CC(=O)c2cc(-c3ncc(-c4ccccc4OC)cn3)ccc2O1` [Compound 594, 2,2-diethyl-6-(5-(2-methoxyphenyl)pyrimidin-2-yl)chroman-4-one], for which the Emax in experiment [1] and in experiment [2] (CHO-K1) was more than 75% throughout. Also, the EC50 is less than 316 nM in experiment [1] (setting [3]) and less than 10 µM in experiment [2] (S1P1).
For `COc1ccc(-c2nc(-c3ccc4c(c3)nnn4CC(C)(C)CO)no2)c(C)c1` [Compound 523, 3-(5-(5-(4-methoxy-2-methylphenyl)-1,2,4-oxadiazol-3-yl)-1H-benzo[d][1,2,3]triazol-1-yl)-2,2-dimethyl-propan-1-ol], the Emax in experiment [1] and in experiment [2] (CHO-K1) was more than 75% throughout. For the same compound, the EC50 in experiment [1] (setting [3]) was more than 316 nM; in experiment [2] (S1P1), more than 10 µM.
With `CCC1(CC)CC(=O)c2cc(-c3nc(-c4ccc5nonc5c4)no3)ccc2O1` [Compound 500, 6-[3-(2,1,3-benzoxadiazol-5-yl)-1,2,4-oxadiazol-5-yl]-2,2-diethyl-3,4-dihydro-2H-1-benzopyran-4-one], the Emax in experiment [1] and in experiment [2] (CHO-K1) was less than 75% throughout. Moreover, the EC50 in experiment [1] (setting [3]) was more than 316 nM; in experiment [2] (S1P1) it was more than 10 µM.
Regarding `CCC1(CC)CC(=O)c2cc(-c3nc(-c4cccnc4C)no3)ccc2O1` [Compound 564, 2,2-diethyl-6-(3-(2-methylpyridin-3-yl)-1,2,4-oxadiazol-5-yl)chroman-4-one], the Emax in experiment [1] and in experiment [2] (CHO-K1) was more than 75% in each case. For the same compound, the EC50 was less than 316 nM in experiment [1] (setting [3]) and less than 10 µM in experiment [2] (S1P1).
In the case of `COc1ccc(-c2nc(-c3ccc4c(c3)nnn4C3CCCC3)no2)cc1` [Compound 196, 3-(1-cyclopentyl-1H-benzo[d][1,2,3]triazol-5-yl)-5-(4-methoxyphenyl)-1,2,4-oxadiazole], the Emax in experiment [1] (inhibition of cAMP production) and in experiment [2] (setting [5]) was less than 75% throughout. In addition, the EC50 was more than 316 nM in experiment [1] (setting [4]) and more than 10 µM in experiment [2] (potency).
`Cn1ccnc1-c1noc(-c2ccc3c(c2)nnn3CC(C)(C)O)n1` [Compound 567, 2-methyl-1-(5-[3-(1-methyl-1H-imidazol-2-yl)-1,2,4-oxadiazol-5-yl]-1H-1,2,3-benzotriazol-1-yl}propan-2-ol]: the Emax in experiment [1] is more than 75%; in experiment [2] (CHO-K1), less than 75%. Moreover, the results for the EC50 in experiment [1] (setting [3]) and in experiment [2] (S1P1) were more than 316 nM and more than 10 µM, respectively.
For `CC(C)n1ccc2cc(-c3nc(-c4ccccc4F)ns3)ccc21` [Compound 374, 5-[3-(2-fluorophenyl)-1,2,4-thiadiazol-5-yl]-1-(propan-2-yl)-1H-indole], in that order: less than 75%, less than 75%, more than 316 nM and more than 10 µM.
As for `O=C1CC(CO)(CO)Oc2ccc(-c3nc(-c4ccncc4)no3)cc21` [Compound 482, 2,2-bis(hydroxymethyl)-6-[3-(pyridin-4-yl)-1,2,4-oxadiazol-5-yl]-3,4-dihydro-2H-1-benzopyran-4-one], the Emax in experiment [1] is less than 75%; in experiment [2] (CHO-K1) it was more than 75%. The figures for the EC50 in experiment [1] (setting [3]) and in experiment [2] (S1P1) were more than 316 nM and more than 10 µM, respectively.
For `CCC1(CC)CC(=O)c2cc(-c3nc(-c4ccoc4)no3)ccc2O1` [Compound 495, 2,2-diethyl-6-(3-(furan-3-yl)-1,2,4-oxadiazol-5-yl)chroman-4-one], the Emax in experiment [1] and in experiment [2] (CHO-K1) was more than 75% throughout. In addition, the EC50 in experiment [1] (setting [3]) was less than 316 nM; in experiment [2] (S1P1), less than 10 µM.
In the case of `Cc1ccsc1-c1noc(-c2ccc3c(c2)nnn3C2CCCC2)n1` [Compound 46, 1-cyclopentyl-5-[3-(3-methylthiophen-2-yl)-1,2,4-oxadiazol-5-yl]-1H-1,2,3-benzotriazole], the Emax in experiment [1] (inhibition of cAMP production) and in experiment [2] (setting [5]) was more than 75% in each case. The EC50 in experiment [1] (setting [4]) is less than 316 nM; in experiment [2] (potency), less than 10 µM.
With `Cc1ccccc1-c1csc(-c2cnc3c(ccn3C(C)C)c2)n1` [Compound 407, 2-(1-isopropyl-pyrrolo[2,3-b]pyridin-5-yl)-4-(o-tolyl)thiazole], the Emax is more than 75% in experiment [1] and less than 75% in experiment [2] (CHO-K1). Moreover, the EC50 in experiment [1] (setting [3]) is more than 316 nM; in experiment [2] (S1P1), more than 10 µM.
